From ChEMBL document CHEMBL5137070, “N-2-(Phenylamino) Benzamide Derivatives as Dual Inhibitors of COX-2 and Topo I Deter Gastrointestinal Cancers via Targeting Inflammation and Tumor Progression” (J Med Chem, 2022)
Activity calls are given as the source filed them. The rule behind the calls is not given here.

Assays:
RKO [1] = assay: Anti-migration activity against human RKO cells assessed as inhibition of cell migration at 0.37 uM and measured after 24 hrs by wound healing assay; format: functional, cell-based
RKO [2] = assay: Effect on cell morphology in human RKO cells assessed as appearance of smaller cells at 10 uM incubated for 48 hrs by giemsa staining based microscopic analysis; format: functional
HGC-27 [3] = assay: Induction of apoptosis in human HGC-27 cells at 1.1 to 10 uM for 24 hrs by Annexin V-FITC/PI staining based flow cytometry; format: functional, cell-based; settings: dose 1.1-10 µM
RKO [4] = assay: Induction of apoptosis in human RKO cells assessed as increase in caspase-3 activity at 10 uM incubated for 36 hrs by flow cytometry (Rvb= 1.08%); format: functional
HGC-27 [5] = assay: Effect on cell morphology in human HGC-27 cells assessed as appearance of smaller cells at 10 uM incubated for 48 hrs by giemsa staining based microscopic analysis; format: functional
RKO [6] = assay: Induction of mitochondrial membrane loss in human RKO at 1.1 to 10 uM and measured after 36 hrs by TMRE dye based flow cytometry; format: functional, cell-based; settings: dose 1.1-10 µM, DDE = dose-dependent effect
RKO [7] = assay: Antiproliferative activity against human RKO cells assessed as reduction in cell proliferation incubated for 48 hrs by MTT assay; format: functional, cell-based
CT26.WT = assay: Anti-tumor activity against mouse CT26.WT xenografted in BALB/c mouse assessed as increase in cleaved caspase-3 expression level at 100 mg/kg, ip twice daily and measured after 14 days by immunohistochemical analysis; format: functional, organism-based; settings: time 14.0 day
RKO [8] = assay: Induction of apoptosis in human RKO cells assessed as increase in caspase-3 activity at 1.1 uM incubated for 36 hrs by flow cytometry (Rvb= 1.08%); format: functional
[9] = Toxicity in BALB/c mouse xenografted with mouse CT26.WT assessed as change in body weight at 100 mg/kg, ip twice daily and measured upto 14 days relative to control; format: organism-based; settings: in vivo, 336 h, time < 14 day
RAW264.7 [10] = assay: Antiinflammatory activity against LPS-stimulated mouse RAW264.7 cells assessed decrease in IL-1beta release at 6.6 uM incubated for 1 hrs followed by LPS stimulation and measured after 24 hrs by ELISA relative to control; format: functional, cell-based; settings: time 25.0 hrs
RAW264.7 [11] = assay: Antiinflammatory activity against LPS-stimulated mouse RAW264.7 cells assessed decrease in IL-1beta release at 1.1 uM incubated for 1 hrs followed by LPS stimulation and measured after 24 hrs by ELISA; format: functional, cell-based; settings: time 25.0 hrs
RKO [12] = assay: Induction of apoptosis in human RKO cells assessed as increase in cleaved caspase-9 expression at 1.1 to 10 uM incubated for 24 hrs by western blot assay; format: functional, cell-based; settings: dose 1.1-10 µM
RAW264.7 [13] = assay: Antiinflammatory activity in mouse RAW264.7 cells assessed as reduction in LPS-induced NF-kappaB nuclear translocation at 6.6 uM incubated for 1 hrs followed by LPS stimulation for 1 hrs by DAPI staining based immunofluorescence assay; format: functional, cell-based; settings: time 2.0 hrs
[14] = target: T1, DNA topoisomerase 1 (Homo sapiens) (UniProt P11387); assay: Inhibition of human topoisomerase I assessed as DNA unwinding using DNA pBR322 as substrate at 2 uM incubated for 30 mins by ethidium bromide staining based agarose gel electrophoresis
T1 sequence (whole entry): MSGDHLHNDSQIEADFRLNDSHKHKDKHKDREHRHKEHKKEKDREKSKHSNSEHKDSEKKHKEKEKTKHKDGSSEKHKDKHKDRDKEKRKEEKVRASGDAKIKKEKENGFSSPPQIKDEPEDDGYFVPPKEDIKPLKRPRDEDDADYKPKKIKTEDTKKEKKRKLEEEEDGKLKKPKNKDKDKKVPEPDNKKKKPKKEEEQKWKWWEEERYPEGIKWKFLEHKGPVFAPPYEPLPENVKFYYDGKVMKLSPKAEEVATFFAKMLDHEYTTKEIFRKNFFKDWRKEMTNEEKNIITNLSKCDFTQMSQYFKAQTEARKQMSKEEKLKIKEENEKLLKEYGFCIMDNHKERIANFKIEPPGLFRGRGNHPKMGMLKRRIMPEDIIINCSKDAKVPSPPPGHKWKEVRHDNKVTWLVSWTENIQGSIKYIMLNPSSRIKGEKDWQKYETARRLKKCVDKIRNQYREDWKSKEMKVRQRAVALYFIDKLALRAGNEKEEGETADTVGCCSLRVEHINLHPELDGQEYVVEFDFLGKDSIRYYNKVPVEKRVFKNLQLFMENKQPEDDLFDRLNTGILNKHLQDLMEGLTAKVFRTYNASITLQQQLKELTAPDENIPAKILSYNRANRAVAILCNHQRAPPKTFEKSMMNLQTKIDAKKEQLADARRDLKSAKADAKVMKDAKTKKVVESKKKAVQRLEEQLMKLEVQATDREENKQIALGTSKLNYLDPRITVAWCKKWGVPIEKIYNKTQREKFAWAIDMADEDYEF

RKO [15] = assay: Induction of apoptosis in human RKO cells assessed as increase in Bax/Bcl-2 ratio expression at 1.1 to 10 uM incubated for 24 hrs by western blot assay; format: functional, cell-based; settings: dose 1.1-10 µM
[16] = Toxicity in BALB/c mouse xenografted with mouse CT26.WT assessed as pathological changes in lung at 100 mg/kg, ip twice daily and measured after 14 days by hematoxylin and eosin staining based microscopic analysis; format: organism-based; settings: in vivo, 336 h, time 14 day
[17] = Acute toxicity in Kunming mouse assessed as mortality at 100 mg/kg,ip and measured upto 14 days; format: organism-based; settings: in vivo, 336 h, time < 14 day
RKO [18] = assay: Effect on cell morphology in human RKO cells assessed as appearance of round cells at 10 uM incubated for 48 hrs by giemsa staining based microscopic analysis; format: functional
RKO [19] = assay: Effect on cell morphology in human RKO cells assessed as condensed morphology at 10 uM incubated for 48 hrs by giemsa staining based microscopic analysis; format: functional
HGC-27 [20] = assay: Antiproliferative activity against human HGC-27 cells assessed as clone formation at 0.37 to 3.3 uM incubated for 4 days by crystal violet staining based analysis; format: functional, cell-based; settings: dose 0.37-3.3 µM, time 4.0 day
[21] = target: Nuclear factor NF-kappa-B complex (Homo sapiens) (UniProt Q00653+P19838+Q04206); assay: Inhibition of NF-kappaB activation in human RKO cells assessed as downregulation of NF-kappaB phosphorylation at 10 uM for 48 hrs by DAPI staining based immunofluorescence assay; format: cell-based
Nuclear factor NF-kappa-B complex (Homo sapiens), sequence (P19838 whole entry, looked up): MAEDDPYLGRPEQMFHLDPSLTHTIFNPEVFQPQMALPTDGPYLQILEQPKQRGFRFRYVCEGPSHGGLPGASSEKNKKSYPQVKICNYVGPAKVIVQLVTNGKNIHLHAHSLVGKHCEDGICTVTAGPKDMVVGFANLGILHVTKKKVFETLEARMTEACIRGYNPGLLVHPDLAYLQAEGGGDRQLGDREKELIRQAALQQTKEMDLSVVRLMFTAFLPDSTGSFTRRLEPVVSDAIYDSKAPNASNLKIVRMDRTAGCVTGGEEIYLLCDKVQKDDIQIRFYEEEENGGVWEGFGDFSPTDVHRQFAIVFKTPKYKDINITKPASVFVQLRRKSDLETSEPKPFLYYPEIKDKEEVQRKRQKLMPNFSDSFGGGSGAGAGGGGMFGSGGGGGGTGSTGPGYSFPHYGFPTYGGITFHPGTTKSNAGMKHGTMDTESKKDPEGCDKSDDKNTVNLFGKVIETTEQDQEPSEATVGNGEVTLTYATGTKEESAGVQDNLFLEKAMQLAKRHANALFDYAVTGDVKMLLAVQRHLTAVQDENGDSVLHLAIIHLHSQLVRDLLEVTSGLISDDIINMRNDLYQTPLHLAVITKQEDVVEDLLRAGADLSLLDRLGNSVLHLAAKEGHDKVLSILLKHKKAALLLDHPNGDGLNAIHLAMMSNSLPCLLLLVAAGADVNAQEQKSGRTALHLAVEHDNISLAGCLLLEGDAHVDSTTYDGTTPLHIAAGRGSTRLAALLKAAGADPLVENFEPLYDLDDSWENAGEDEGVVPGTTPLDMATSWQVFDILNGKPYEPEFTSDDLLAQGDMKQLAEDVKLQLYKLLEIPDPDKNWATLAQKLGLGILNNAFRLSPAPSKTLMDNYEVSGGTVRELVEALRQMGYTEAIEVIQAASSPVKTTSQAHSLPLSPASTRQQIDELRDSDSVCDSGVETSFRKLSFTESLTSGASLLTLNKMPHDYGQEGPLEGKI
Nuclear factor NF-kappa-B complex (Homo sapiens), sequence (Q00653 whole entry, looked up): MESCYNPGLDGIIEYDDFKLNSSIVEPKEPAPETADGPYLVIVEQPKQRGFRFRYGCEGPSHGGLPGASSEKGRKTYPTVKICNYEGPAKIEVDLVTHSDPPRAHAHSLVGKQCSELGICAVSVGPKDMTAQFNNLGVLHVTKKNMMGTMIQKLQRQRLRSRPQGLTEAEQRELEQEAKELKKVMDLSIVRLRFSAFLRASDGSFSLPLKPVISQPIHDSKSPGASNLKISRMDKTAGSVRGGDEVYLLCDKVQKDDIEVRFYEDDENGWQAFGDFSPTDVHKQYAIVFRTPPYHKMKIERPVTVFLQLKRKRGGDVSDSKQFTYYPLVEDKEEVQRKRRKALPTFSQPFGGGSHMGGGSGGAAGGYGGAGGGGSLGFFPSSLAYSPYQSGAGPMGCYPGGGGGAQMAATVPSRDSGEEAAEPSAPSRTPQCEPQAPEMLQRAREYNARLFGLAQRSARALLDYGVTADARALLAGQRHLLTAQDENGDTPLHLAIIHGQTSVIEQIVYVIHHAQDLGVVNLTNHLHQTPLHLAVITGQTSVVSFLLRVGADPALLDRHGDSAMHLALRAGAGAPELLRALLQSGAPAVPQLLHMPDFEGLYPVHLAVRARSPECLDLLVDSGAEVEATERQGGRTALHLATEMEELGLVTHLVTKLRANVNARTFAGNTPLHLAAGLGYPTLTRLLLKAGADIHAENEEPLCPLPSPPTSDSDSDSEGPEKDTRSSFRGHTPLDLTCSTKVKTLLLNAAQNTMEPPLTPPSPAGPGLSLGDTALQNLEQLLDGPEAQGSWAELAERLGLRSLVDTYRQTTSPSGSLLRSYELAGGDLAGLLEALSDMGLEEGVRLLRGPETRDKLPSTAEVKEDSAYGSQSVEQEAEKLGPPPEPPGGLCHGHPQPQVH
Nuclear factor NF-kappa-B complex (Homo sapiens), sequence (Q04206 whole entry, looked up): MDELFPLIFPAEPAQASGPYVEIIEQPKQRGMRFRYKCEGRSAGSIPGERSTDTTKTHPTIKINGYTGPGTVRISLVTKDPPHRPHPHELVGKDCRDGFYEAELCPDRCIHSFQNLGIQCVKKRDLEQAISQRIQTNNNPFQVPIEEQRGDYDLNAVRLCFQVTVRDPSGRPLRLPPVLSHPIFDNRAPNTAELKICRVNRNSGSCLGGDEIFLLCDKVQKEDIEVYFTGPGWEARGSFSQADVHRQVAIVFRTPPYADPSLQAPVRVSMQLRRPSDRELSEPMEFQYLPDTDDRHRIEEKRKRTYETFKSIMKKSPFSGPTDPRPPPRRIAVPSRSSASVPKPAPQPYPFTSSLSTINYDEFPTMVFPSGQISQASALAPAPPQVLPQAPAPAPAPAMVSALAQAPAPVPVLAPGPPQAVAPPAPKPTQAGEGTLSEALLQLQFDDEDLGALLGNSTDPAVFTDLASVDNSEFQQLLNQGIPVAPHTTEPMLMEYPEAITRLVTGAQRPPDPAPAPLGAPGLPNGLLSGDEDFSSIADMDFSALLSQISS

HGC-27 [22] = assay: Induction of apoptosis in human HGC-27 cells assessed as increase in caspase-3 activity at 1.1 uM incubated for 36 hrs by flow cytometry (Rvb= 9.39%); format: functional
[23] = Toxicity in BALB/c mouse xenografted with mouse CT26.WT assessed as pathological changes in spleen at 100 mg/kg, ip twice daily and measured after 14 days by hematoxylin and eosin staining based microscopic analysis; format: organism-based; settings: in vivo, 336 h, time 14 day
RAW264.7 [24] = assay: Antiinflammatory activity in mouse RAW264.7 cells assessed as reduction in LPS-induced COX-2 expression at 6.6 uM incubated for 1 hrs followed by LPS stimulation and measured after 24 hrs by western blot analysis; format: functional, cell-based; settings: time 25.0 hrs
RKO [25] = assay: Induction of apoptosis in human RKO cells at 1.1 to 10 uM for 24 hrs by Annexin V-FITC/PI staining based flow cytometry; format: functional, cell-based; settings: dose 1.1-10 µM

## Cc1c(Cl)cccc1Nc1ccc(F)cc1C(=O)NCc1ccc(O)c(O)c1
RKO [1]
  Activity: Active
RKO [2]
  Activity: Active
HGC-27 [3]
  Activity: Active
RKO [4]
  Activity: 55.94%
HGC-27 [5]
  Activity: Active
RKO [6]
  Activity: Dde
RKO [7]
  IC50: 3.12 µM
CT26.WT
  Activity: Active
RKO [8]
  Activity: 33.77%
[9]
  Activity: Non-Toxic
RAW264.7 [10]
  Activity: Active
RAW264.7 [11]
  Activity: Active
RKO [12]
  Activity: Active
RAW264.7 [13]
  Activity: Active
[14]
  inhibition: 45.4%
RKO [15]
  Activity: Active
[16]
  Activity: Non-Toxic
[17]
  Activity: Non-Toxic
RKO [18]
  Activity: Active
RKO [19]
  Activity: Active
HGC-27 [20]
  Activity: Active
[21]
  inhibition: Active
HGC-27 [22]
  Activity: 57.64%
[23]
  Activity: Non-Toxic
RAW264.7 [24]
  Activity: Active
RKO [25]
  Activity: Active
